From patent US11998010B2, “Pesticidal mixtures” (BASF SE, priority 2018, dated 2024)

System: Alternaria solani
Assay: Microtest: activity against early blight caused by Alternaria solani (micro titer plate, absorption at 405 nm)
Assay type: cell-based
Settings: single compound, 7 days after inoculation, 0 = growth as untreated control, 100 = no growth
Method: The stock solutions were mixed according to the ratio, pipetted onto a micro titer plate (MTP) and diluted with water to the stated concentrations. A spore suspension of Alternaria solani in an aqueous biomalt or yeast-bactopeptone-glycerine or DOB solution was then added. The plates were placed in a water vapor-saturated chamber at a temperature of 18° C. Using an ab-sorption photometer, the MTPs were measured at 405 nm 7 days after the inoculation. The measured parameters were compared to the growth of the active compound-free control variant (100%) and the fungus-free and active compound-free blank value to determine the relative growth in % of the pathogens in the respective active compounds. These percentages were converted into efficacies. […] The expected efficacies of active compound mixtures were determined using Colby's formula [R. S. Colby, “Calculating synergistic and antagonistic responses of herbicide combinations”, Weeds 15, 20-22 (1967)] and compared with the observed efficacies.

Row | SMILES | Observed efficacy (0.25 ppm) | Observed efficacy (1 ppm) | Observed efficacy (4 ppm) | Observed efficacy (0.016 ppm)
1 | N#Cc1ccc(Oc2ccc(C(F)(F)C(O)(Cn3ncnc3S)c3ccc(F)cc3F)nc2)cc1 (stereo not shown) [Compound I, 4-[[6-[2-(2,4-difluorophenyl)-1,1-difluoro-2-hydroxy-3-(5-sulfanyl-1,2,4-triazol-1-yl)propyl]-3-pyridyl]oxy]benzonitrile] | 7 | 8 | 30 | 
2 | Cc1cccc(-n2nnn(C)c2=O)c1COc1ccn(-c2ccc(Cl)cc2)n1 [Compound II, 1-[2-[[1-(4-chlorophenyl)pyrazol-3-yl]oxymethyl]-3-methyl-phenyl]-4-methyl-tetrazol-5-one, reference compound] |  |  |  | 11
